According to patent US20190358181A1, “METHODS FOR AUTISM SPECTRUM DISORDER PHARMACOTHERAPY” (priority 2017, published 2019):

How the values were obtained:
Format in all cases: in vivo, human
males with ASD [1] = assay: Aberrant Behavior Checklist (ABC), parent questionnaire, SAT-1 trial; conditions: ABC Stereotypy
Experimental: Two observational examinations were performed by a clinician at 3 time points: baseline (56±8 days; mean±SEM; before the infusion), 2-days post-infusion, and 6-weeks post-infusion. The two examiner-based metrics were the Autism Diagnostic Observation Schedule, 2nd edition (ADOS-2) with video and audio files recorded on 3 cameras, and the Expressive One Word Picture Vocabulary Testing (EOWPVT). Both of these observational metrics were administered by a trained and certified examiner using approved test materials. Three standardized questionnaires were completed by parents at 3 time points: baseline, 7-days post-infusion, and 6-weeks post-infusion. The three standardized questionnaires completed by parents were the 58-question Aberrant Behavior Checklist (ABC), the 75-item Autism Treatment Evaluation Checklist (ATEC), and the 33-item repetitive behavior questionnaire (RBQ). Parents were asked to complete these three instruments with reference to how their child behaved in the previous 7 days. At the end of the six weeks, we included a 24-question Clinical Global Impression (CGI) questionnaire (FIG. 16). In addition, parents were asked to list the 3 top behaviors or symptoms that they observed to be most changed over the previous 6-weeks. To minimize the misinterpretation of natural day-to-day variations in symptoms, parents were asked to mark a symptom as changed in the 6-week CGI only if it had lasted for at least 1 week. […]
Behavioral and neurological effects of treatment were assessed primarily by the examiner-based ADOS-2 protocol scores and standardized vocabulary testing (Expressive One Word Picture Vocabulary Test, EOWPVT), with secondary evaluation via parent-based assessments (Aberrant Behavior Checklist (ABC) scores, Autism Treatment Evaluation Checklist (ATEC) scores, Clinical Global Impression of Improvement (CGI) scores, and Repetitive Behavior Questionnaire (RBQ) scores). […] Examiner-based outcomes (ADOS and EOWPVT) were assessed at 2-days and 6-weeks after the infusion. Parent-based outcomes (ABC, ATEC, CGI, and RBQ) were assessed at 7-days and 6-weeks after the infusion. […]
Each child was used as their own control to examine before and after treatment effects from Example 1 in a paired t-test design for the analysis of the ADOS, EOWPVT, ABC, ATEC, RBQ (FIGS. 4-11 show individual analyses), and blood and urine safety data (FIGS. 2 and 3 show individual analyses). […] Categorical data, such as the presence or absence of adverse events or historical symptoms was analyzed by Fisher's exact test. […] Cohen's d—calculated as the mean difference of the paired, within-subject scores before and after treatment, divided by the standard deviation of the differences—was used as an estimate of effect size.

males with ASD [2] = assay: Clinical Global Impression (CGI) 24-question instrument, SAT-1 trial; conditions: for Difference from baseline (mean ± sd) / d (Cohen's d): 45 days after treatment
Experimental: (§1) Two observational examinations were performed by a clinician at 3 time points: baseline (56±8 days; mean±SEM; before the infusion), 2-days post-infusion, and 6-weeks post-infusion. The two examiner-based metrics were the Autism Diagnostic Observation Schedule, 2nd edition (ADOS-2) with video and audio files recorded on 3 cameras, and the Expressive One Word Picture Vocabulary Testing (EOWPVT). Both of these observational metrics were administered by a trained and certified examiner using approved test materials. Three standardized questionnaires were completed by parents at 3 time points: baseline, 7-days post-infusion, and 6-weeks post-infusion. The three standardized questionnaires completed by parents were the 58-question Aberrant Behavior Checklist (ABC), the 75-item Autism Treatment Evaluation Checklist (ATEC), and the 33-item repetitive behavior questionnaire (RBQ). Parents were asked to complete these three instruments with reference to how their child behaved in the previous 7 days. At the end of the six weeks, we included a 24-question Clinical Global Impression (CGI) questionnaire (FIG. 16). In addition, parents were asked to list the 3 top behaviors or symptoms that they observed to be most changed over the previous 6-weeks. To minimize the misinterpretation of natural day-to-day variations in symptoms, parents were asked to mark a symptom as changed in the 6-week CGI only if it had lasted for at least 1 week.
We developed a 24-question Clinical Global Impression (CGI) instrument designed to assess the core symptoms of autism spectrum disorders and some of the most common comorbid features (FIG. 16). The CGI instrument scoring system was the traditional 7-point, CGI-Improvement scale. See, for e.g. Busner and Targum. Psychiatry. 2007(4):28-37. In this scale, the historian gives a score of 0 if the symptom “was never a problem”, a 1 for “very much improved”, a 4 for “no change”, and a 7 for “very much worse”. In addition to the 24 structured questions, we asked the parents to write in the top 3 symptoms or behaviors that were most changed over the 6 weeks since the suramin infusion. This hybrid design of structured and open-ended responses permitted us to capture a large number of clinical outcomes associated with single dose suramin treatment.
(§2) For the test dose, 50 mg of suramin hexasodium (Bayer Pharmaceuticals, Inc.) in 5 mL of saline (experimental arm, 5 patients), or 5 mL of saline only (control arm, 5 patients) were given by slow intravenous (IV) push over 3 minutes, followed by a 10 mL flush of saline. One hour after the test dose, vital signs were repeated and a single infusion of either suramin (20 mg/kg, minus the 50 mg test dose, in 50 mL, up to a maximum of 1 gram) or saline (50 mL IV) was given over 30 minutes, followed by a 10 mL flush of saline.
Behavioral and neurological effects of treatment were assessed primarily by the examiner-based ADOS-2 protocol scores and standardized vocabulary testing (Expressive One Word Picture Vocabulary Test, EOWPVT), with secondary evaluation via parent-based assessments (Aberrant Behavior Checklist (ABC) scores, Autism Treatment Evaluation Checklist (ATEC) scores, Clinical Global Impression of Improvement (CGI) scores, and Repetitive Behavior Questionnaire (RBQ) scores). See General Methods for information related to behavioral test administration. Prior to the study, diagnosis of each of the enrolled participants was confirmed by ADOS-2 comparison scores of ≥7, and non-verbal IQ was tested by Leiter-3 examination. Examiner-based outcomes (ADOS and EOWPVT) were assessed at 2-days and 6-weeks after the infusion. Parent-based outcomes (ABC, ATEC, CGI, and RBQ) were assessed at 7-days and 6-weeks after the infusion. To minimize the effects of natural behavioral variability, the parents were instructed to mark a behavior as changed only if it was persistently changed for at least 1 week. […]

males with ASD [3] = assay: ADOS-2 (Autism Diagnostic Observation Schedule, 2nd edition), SAT-1 trial, single 20 mg/kg IV suramin infusion; conditions: for Difference from baseline (mean ± sd) / d (Cohen's d): 45 days after treatment
Experimental: as §1
All children met DSM-5 diagnostic criteria for autism spectrum disorders, and received confirmatory testing by Autism Diagnostic Observation Schedule, 2nd edition (ADOS-2) examination. Inclusion criteria included males, ages 4-17 years, living in the San Diego, Calif. region, with a confirmed diagnosis of ASD.
as §2
Behavioral and neurological effects of treatment were assessed primarily by the examiner-based ADOS-2 protocol scores and standardized vocabulary testing (Expressive One Word Picture Vocabulary Test, EOWPVT), with secondary evaluation via parent-based assessments (Aberrant Behavior Checklist (ABC) scores, Autism Treatment Evaluation Checklist (ATEC) scores, Clinical Global Impression of Improvement (CGI) scores, and Repetitive Behavior Questionnaire (RBQ) scores). See General Methods for information related to behavioral test administration. Prior to the study, diagnosis of each of the enrolled participants was confirmed by ADOS-2 comparison scores of ≥7, and non-verbal IQ was tested by Leiter-3 examination. Examiner-based outcomes (ADOS and EOWPVT) were assessed at 2-days and 6-weeks after the infusion. Parent-based outcomes (ABC, ATEC, CGI, and RBQ) were assessed at 7-days and 6-weeks after the infusion. To minimize the effects of natural behavioral variability, the parents were instructed to mark a behavior as changed only if it was persistently changed for at least 1 week.
Each child was used as their own control to examine before and after treatment effects from Example 1 in a paired t-test design for the analysis of the ADOS, EOWPVT, ABC, ATEC, RBQ (FIGS. 4-11 show individual analyses), and blood and urine safety data (FIGS. 2 and 3 show individual analyses). Paired, non-parametric analysis was by Wilcoxon signed-rank sum test. Categorical data, such as the presence or absence of adverse events or historical symptoms was analyzed by Fisher's exact test. […]

For Cc1ccc(C(=O)Nc2ccc(S(=O)(=O)O)c3cc(S(=O)(=O)O)cc(S(=O)(=O)O)c23)cc1NC(=O)c1cccc(NC(=O)Nc2cccc(C(=O)Nc3cc(C(=O)Nc4ccc(S(=O)(=O)O)c5cc(S(=O)(=O)O)cc(S(=O)(=O)O)c45)ccc3C)c2)c1 [Suramin, suramin], the “Difference from baseline (mean ± sd)” value (males with ASD [1]; 7 days after treatment) was −3.6 ± 2.1, the “d (Cohen's d)” value (males with ASD [1]; 7 days after treatment) was 1.7 and the “Difference from baseline (mean ± sd)” value (males with ASD [1]; 45 days after treatment) was −4.0 ± 2.3. For the same molecule, the “d (Cohen's d)” value (males with ASD [1]; 45 days after treatment) was 1.7, the “symptoms covered in the CGI that were significant” value (males with ASD [2]; 6-weeks, 24 symptoms (FIG. 10C)) was “Four of 24” and the “Difference from baseline (mean ± sd)” value (males with ASD [2]; CGI E. Language (expressive language)) was −2.0 ± 1.04. For the same molecule, the “d (Cohen's d)” value (males with ASD [2]; CGI E. Language) was 1.9, the “Difference from baseline (mean ± sd)” value (males with ASD [2]; CGI Overall ASD symptoms) was −1.8 ± 1.04 and the “d (Cohen's d)” value (males with ASD [2]; CGI Overall ASD symptoms) was 1.7. For the same molecule, the “Difference from baseline (mean ± sd)” value (males with ASD [2]; CGI Social Inter. (social interaction)) was −2.0 ± 1.04, the “d (Cohen's d)” value (males with ASD [2]; CGI Social Inter.) was 1.9 and the “mean ADOS comparison score” value (males with ASD [3]; 6-weeks after suramin (8.6±0.4 at baseline)) was 7.0±0.3. The “ADOS-2 comparison scores improved by an average of (mean±SD)” value (males with ASD [3]; 6-weeks, suramin treatment group, n=5) was −1.6±0.55 points, the “2-day ADOS scores” value (males with ASD [3]; 2 days after suramin (FIG. 10A)) was “no change” and the “Difference from baseline (mean ± sd)” value (males with ASD [3]; ADOS-2 Comparison) was −1.6 ± 0.55. The “d (Cohen's d)” value (males with ASD [3]; ADOS-2 Comparison) was 2.9, the “Difference from baseline (mean ± sd)” value (males with ASD [3]; ADOS-2 Raw) was −4.6 ± 1.9 and the “d (Cohen's d)” value (males with ASD [3]; ADOS-2 Raw) was 2.4. The “Difference from baseline (mean ± sd)” value (males with ASD [3]; ADOS-2 Restr/Rep (restricted or repetitive behaviors)) was −1.4 ± 0.89, the “d (Cohen's d)” value (males with ASD [3]; ADOS-2 Restr/Rep) was 1.6 and the “Difference from baseline (mean ± sd)” value (males with ASD [3]; ADOS-2 Social) was −3.2 ± 1.9. The “d (Cohen's d)” value (males with ASD [3]; ADOS-2 Social) was 1.7.
